The structures appear in SMILES notation.

The subject of this assay is Recombinant amyloidogenic full length light chain protein WIL-FL T46L. Put plainly: Differential Scanning Fluorimetry (thermal shift) assay. Format: binding. Conditions: WIL-FL T46L protein and compound incubated at RT for 30 min before dye; compared to vehicle. As for the experimental part:
Differential Scanning Fluorimetry Assay
The stabilization effects the compounds have on the immunoglobulin light chain protein was quantitively measured using a thermal shift assay. Recombinant amyloidogenic full length light chain protein WIL-FL T46L was produced in E. coli, purified, and used in the assay. The Thermal Shift Protein Stability Kit from Biotium was used and the assay was done in 96-well Plates following the manufacturer's instructions. The protein and compounds were incubated at RT for 30 min before adding the dye and subjected to the thermal shift assay. The thermal stability (Tm) of each sample was then determined using standard curve fitting methods and compared to vehicle. Data are expressed as temperature shift: [Tm]compound−[Tm]vehicle.
The compounds provided herein induce shifts in the ranges below: • 0-0.5° C.=* • >0.5-1° C.=** • >1-1.5° C.=*** • >1.5-2.5° C.=**** • >2.5° C.=*****
Consider `CCOC(=O)c1ccc(N2CCC3(CC2)CN(CCNC(=O)c2ncc(OC[C@@H](C)c4ccccc4)cc2Cl)C(=O)N3)cn1` [Compound 15], for which the “DSF temperature shift: [Tm]compound−[Tm]vehicle” value (“DSF temperature shift” below) is on record as “*** (>1-1.5° C.=***)”.

As for `C[C@H](COc1cnc(C(=O)NCCN2CC3(CCN(c4ccc(C(=O)O)nn4)CC3)NC2=O)c(Cl)c1)c1ccccc1` [Compound 21], the “DSF temperature shift” value is on record as “** (>0.5-1° C.=**)”. In the case of `C[C@]1(c2ccccc2)CCN(c2cnc(C(=O)NCCN3CC4(CCN(c5nccn6cnnc56)CC4)NC3=O)c(Cl)c2)C1` [Compound 9] it was “***** (>2.5° C.=*****)”. In the case of `C[C@H](COc1cnc(C(=O)NCCN2CC3(CCN(c4cnc(C(=O)O)c(F)c4)CC3)NC2=O)c(Cl)c1)c1ccccc1` [Compound 20] it was “** (>0.5-1° C.=**)”; in that of `COC(=O)c1ncc(N2CCC3(CC2)CN(CCNC(=O)c2ncc(OC[C@@H](C)c4ccccc4)cc2Cl)C(=O)N3)cc1F` [Compound 18], “** (>0.5-1° C.=**)”; in that of `Cc1cc(N2CCC(C)(c3ccccc3)C2)cnc1C(=O)NCCN1CC2(CCN(c3nccn4ccnc34)CC2)NC1=O` (stereo not shown) [Compound 14], “***** (>2.5° C.=*****)”. On to `C[C@H](COc1cnc(C(=O)NCCN2CC3(CCN(c4nccn5ccnc45)CC3)NC2=O)c(Cl)c1)c1ccccc1` (stereo in doubt) [Compound 13, 3-chloro-N-(2-(8-(imidazo[1,2-a]pyrazin-8-yl)-2-oxo-1,3,8-triazaspiro[4.5]decan-3-yl)ethyl)-5-(2-phenylpropoxy)picolinamide], for which the “DSF temperature shift” value is “***** (>2.5° C.=*****)”.

Turning to `CC(=O)N1CCC2(CC1)CN(CCNC(=O)c1ncc(N3CC[C@](C)(c4ccccc4)C3)cc1C)C(=O)N2` [Compound 25], the “DSF temperature shift” value was “**** (>1.5-2.5° C.=****)”.

In the case of `C[C@]1(c2ccccc2)CCN(c2cnc(C(=O)NCCN3CC4(CCN(c5nccn6ccnc56)CC4)NC3=O)c(C(F)(F)F)c2)C1` [Compound 8], the “DSF temperature shift” value is reported as “**** (>1.5-2.5° C.=****)”. For the molecule `C[C@]1(c2ccccc2)CCN(c2cnc(C(=O)NCCN3CC4(CCN(c5nccn6ccnc56)CC4)NC3=O)c(Cl)c2)C1` [Compound 7, 3-chloro-N-(2-(8-(imidazo[1,2-a]pyrazin-8-yl)-2-oxo-1,3,8-triazaspiro[4.5]decan-3-yl)ethyl)-5-(3-methyl-3-phenylpyrrolidin-1-yl)picolinamide], the “DSF temperature shift” value was “***** (>2.5° C.=*****)”. In the case of `C[C@H](COc1cnc(C(=O)NCCN2CC3(CCN(c4ccc(C(=O)O)nc4)CC3)NC2=O)c(Cl)c1)c1ccccc1` [Compound 22] it was “*** (>1-1.5° C.=***)”. In the case of `C[C@H](COc1cnc(C(=O)NCCN2CC3(CCN(c4cnccn4)CC3)NC2=O)c(Cl)c1)c1ccccc1` [Compound 24] it was “**** (>1.5-2.5° C.=****)”; in that of `Cc1cc(N2CC[C@](C)(c3ccccc3)C2)cnc1C(=O)NCCN1CC2(CCN(c3nccn4cnnc34)CC2)NC1=O` [Compound 4], “***** (>2.5° C.=*****)”; in that of `C[C@H](COc1cnc(C(=O)NCCN2CC3(CCN(c4nccn5cncc45)CC3)NC2=O)c(Cl)c1)c1ccccc1` [Compound 23], “***** (>2.5° C.=*****)”. To `Cc1cc(N2CC[C@](C)(c3ccccc3)C2)cnc1C(=O)NCCN1CC2(CCN(c3nccn4cncc34)CC2)NC1=O` [Compound 3] belongs “***** (>2.5° C.=*****)”; to `Cc1cc(N2CC[C@](C)(c3ccccc3)C2)cnc1C(=O)NCCN1CC2(CCN(c3nccn4ccnc34)CC2)NC1=O` (stereo in doubt) [Compound 5, N-(2-(8-(imidazo[1,2-a]pyrazin-8-yl)-2-oxo-1,3,8-triazaspiro[4.5]decan-3-yl)ethyl)-3-methyl-5-(3-methyl-3-phenylpyrrolidin-1-yl)picolinamide], “***** (>2.5° C.=*****)”; to `CC[C@]1(c2ccccc2)CCN(c2cnc(C(=O)NCCN3CC4(CCN(c5ccnc(C(=O)NC)c5)CC4)NC3=O)c(Cl)c2)C1` [Compound 16], “* (0-0.5° C.=*)”.

Take `Cc1cc(N2CCC(C)(c3ccccc3)C2)cnc1CCN1C(=O)NC2(CCN(c3ncccn3)CC2)C1=O` (stereo not shown) [Compound 26]: the “DSF temperature shift” value is on record as “* (0-0.5° C.=*)”. In the case of `CC[C@]1(c2ccccc2)CCN(c2cnc(C(=O)NCCN3CC4(CCN(c5cncnc5)CC4)NC3=O)c(Cl)c2)C1` [Compound 17] it was “** (>0.5-1° C.=**)”; in that of `Cc1cc(N2CCC(C)(c3ccccc3)C2)cnc1C(=O)NCCN1CC2(CCNCC2)NC1=O` (stereo not shown) [Compound 2, 3-methyl-5-(3-methyl-3-phenylpyrrolidin-1-yl)-N-(2-(2-oxo-1,3,8-triazaspiro[4.5]decan-3-yl)ethyl)picolinamide], “**** (>1.5-2.5° C.=****)”. Regarding `C[C@H](COc1cnc(C(=O)NCCN2CC3(CCNCC3)NC2=O)c(Cl)c1)c1ccccc1` [Compound 12], the “DSF temperature shift” value was “*** (>1-1.5° C.=***)”. `Cc1cc(N2CC[C@@](C)(c3ccccc3)C2)cnc1C(=O)NCCN1CC2(CCN(c3nccn4ccnc34)CC2)NC1=O` [Compound 6]: the “DSF temperature shift” value is on record as “**** (>1.5-2.5° C.=****)”.

For the molecule `CC[C@]1(c2ccccc2)CCN(c2cnc(C(=O)NCCN3CC4(CCN(c5nccn6ccnc56)CC4)NC3=O)c(Cl)c2)C1` [Compound 10], the “DSF temperature shift” value was “***** (>2.5° C.=*****)”.

Take `CC[C@]1(c2ccccc2)CCN(c2cnc(C(=O)NCCN3CC4(CCN(c5nccn6cnnc56)CC4)NC3=O)c(Cl)c2)C1` [Compound 11]: the “DSF temperature shift” value is “***** (>2.5° C.=*****)”.

As to `COC(=O)c1ccc(N2CCC3(CC2)CN(CCNC(=O)c2ncc(OC[C@@H](C)c4ccccc4)cc2Cl)C(=O)N3)nn1` [Compound 19], the “DSF temperature shift” value is on record as “**** (>1.5-2.5° C.=****)”.
